Values joined by “and” are separate entries in the source; they are usually repeats but may differ in a detail not shown here. Equal entries are not always repeated. Where two headings read alike, the source gives them in different places.
Experiments:
MhPA14 [1] = target: T1, MhPA14 (Marinobacter hydrocarbonoclasticus, UniProt A0ABF7PGZ6); test: Fungal, bacterial and plant polysaccharide array set 2 (Imperial College) probed with GFP_MhPA14; type: binding; settings: 50 μg/mL GFP_MhPA14, anti-GFP antibody detection, average of duplicates
Procedure: The second array was screened at the Carbohydrate Microarray Facility (Glycosciences Laboratory, Imperial College). GFP_MhPA14 (50 μg/mL) was exposed to the ‘Fungal, bacterial and plant polysaccharide array set 2’, which contained duplicates of 20 saccharide probes extracted from a variety of organisms. An Alexa Fluora 647-tagged anti-GFP antibody was used for detection, and the duplicates were averaged to give the final RFU values.

MhPA14 [2] = target: T1, MhPA14; test: Superdex 200 column affinity test (gradient elution of bound MhPA14); type: binding; settings: increasing gradient, 0-55 mM glucose or 0-5 mM EDTA over 45 min
Procedure: A Superdex 200 10/300 GL column (GE Healthcare) was used to probe the resin-binding ability of MhPA14. Approximately 1 mg of MhPA14 was loaded onto the column and washed with 3 column volumes of Protein Buffer. An increasing gradient of either glucose or EDTA was then implemented, rising from 0 mM– 55 mM glucose or 0 mM– 5 mM EDTA over 45 min.

MhPA14 [3] = target: T1, MhPA14; test: Dextran-based (Superdex 200 resin) competitive binding assay
Procedure: Superdex 200 (S200) resin stored in 20% ethanol was washed twice in Protein Buffer using 6600 xg centrifugation. A millilitre of 1 mg/mL MhPA14 fused N-terminally to GFP, named GFP_MhPA14 (S1 Fig), was incubated with 300 μL of equilibrated S200 resin. Following 30 sec of vortexing and 2 min of incubation with slight mixing (nutation), the solution was centrifuged at 6600 xg for 2.5 min and the supernatant discarded. Protein buffer (1 mL) was added to the tube, and the process of mixing followed by centrifugation was repeated. The A280 of the resulting supernatant was taken to account for the minimal amount of non-sugar-related protein disassociation from the resin, and was used as a baseline reading. The supernatant was then returned into its original resin mixture tube with the addition of 1.67 μmoles (3 μL of 555 mM) of saccharide. […] After reading the A280 of the supernatant, the above process was repeated for seven tandem saccharide additions of 1.67 μmoles, as well as a final 5-μmole addition. […]
Attempts to solve MhPA14 structures with other sugars bounds–whether by soaking or co-crystallization–were fruitless. […] The amount of GFP-tagged MhPA14 released from the resin upon each sugar addition was measured using absorbance at 280 nm, which was plotted against concentration of free sugar to produce semi-quantitative binding curves (Fig 8). […]

MhPA14 [4] = target: T1, MhPA14; test: Isothermal titration calorimetry (ITC); type: binding; settings: 30°C; for Kd: 400 μM MhPA14, 8 mM sugar
Procedure: Isothermal calorimetric titration (ITC) measurements were performed using a MicroCal VP-ITC calorimeter (Malvern) set at 30°C. […] Sugars were added from the computer-controlled rotating syringe (400 RPM) at 5-min intervals into the MhPA14 solution for a total of 50 injections. The data were analyzed by Origin software Version 5.0 (Malvern).

EpA1 = target: EpA1; parameters: method as in PMID 22349222; settings: EpA1 and its sugar of choice; cited from earlier work
[5] = fucose and glucose are averages of triplicate runs
[6] = fucose and glucose are averages of triplicate runs, read-out: Kd

T1 sequence (A0ABF7PGZ6 entry or part of it): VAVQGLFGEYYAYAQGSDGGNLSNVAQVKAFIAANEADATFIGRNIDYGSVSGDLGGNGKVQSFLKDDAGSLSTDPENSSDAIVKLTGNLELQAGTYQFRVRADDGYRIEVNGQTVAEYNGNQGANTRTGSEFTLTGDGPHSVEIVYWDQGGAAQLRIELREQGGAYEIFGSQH

| Molecule | Affinity for MhPA14 on polysaccharide array (MhPA14 [1]) | N (calculated stoichiometry) (MhPA14 [4]; [5]) | Kd (MhPA14 [4]; [6]) | other results |
| --- | --- | --- | --- | --- |
| pullulan | modest affinities | – | – | – |
| O=C(O)CN(CCN(CC(=O)O)CC(=O)O)CC(=O)O [EDTA] | – | – | – | Concentration at which MhPA14 eluted from Superdex S200 column (MhPA14 [2]): 3.5 mM |
| CC(=O)N[C@@H]1[C@@H](O)[C@@H](O)[C@@H](CO)O[C@@H]1O [N-acetylgalactosamine] | – | – | – | Kdapp (apparent dissociation constant) (MhPA14 [3]; GFP_MhPA14 displaced from Superdex 200 resin by free sugar, A280 readout, triplicate, semi-quantitative): Non-binding; Binding in competitive binding assay (MhPA14 [3]; GFP_MhPA14 on Superdex 200 resin): unable to bind MhPA14 at all |
| O=C[C@H](O)[C@@H](O)[C@@H](O)[C@H](O)CO [Galactose] | – | 1.00 | – | Kd (MhPA14 [4]; Kd): > 1000 µM; Kd (MhPA14 [4]; Kd, fucose and glucose are averages of triplicate runs): 1540 µM; Kd (EpA1): 115 µM |
| C[C@H](O)[C@@H](O)[C@@H](O)[C@H](O)C=O [Fucose, 6-deoxy-L-galactose] | – | 0.98 ± 0.03 | 58 µM and 58.2 µM | – |
| lentinan | strongest affinity | – | – | – |
| dextran | modest affinities | – | – | – |
| curdlan | almost no affinity | – | – | – |
| O=CC[C@@H](O)[C@H](O)[C@H](O)CO [2-deoxy-D-glucose] | – | 0.86 | 228 µM | – |
| OC[C@H]1OC(O)[C@H](O)[C@@H](O)[C@@H]1O (stereo partly drawn) [Glucose, glucose] | – | 1.01 ± 0.14 | 137 µM | Concentration at which MhPA14 eluted from Superdex S200 column (MhPA14 [2]): 25 mM |

Source: paper PMC6650083, “Structure and functional analysis of a bacterial adhesin sugar-binding domain” (PLoS ONE, 2019)
